The record followed here is US8927484B2, “Antiviral compounds” (Gilead Sciences, Inc., priority 2009, dated 2015).

SMILES strings stand for the structures.

This assay concerns Replicon cells harboring H77 (genotype 1a) or Con1 (genotype 1b) HCV RNA and Renilla luciferase reporter. The assay is described as follows: High Throughput Replicon Assay (HTBS). Particulars: 72 h, read-out: INH @1 μM (Mean). The format is cell-based. As to the method:
High Throughput Replicon Assay (HTBS)
Replicon cells harboring H77 (genotype 1a) or Con1 (genotype 1b) HCV RNA and Renilla luciferase reporter were seeded in 384-well black plates at a density of 1.6×10^3 cells per well in 90 μl of DMEM culture medium, excluding G-418. Compounds were serially diluted in 100% DMSO and added to cells at a 1:225 dilution, achieving a final concentration of 0.44% DMSO in a total volume of 90 μL with a Biotek uFlow Workstation. Cell plates were incubated at 37° C. with 5% CO2 for 3 days, after which culture media were removed and cells were assayed for luciferase activity as a marker for replication level. Luciferase expression was measured using Dual-Glo luciferase assay reagents (Promega, Madison, Wis.). Briefly, 20 μL of Dual-Glo luciferase buffer was added to lyse the cells for 10 min and subsequently 20 μL of a diluted Dual-Glo Stop & Glo substrate (1:100) was added to each well. Luminescence signal was measured on a Perkin Elmer Envision Plate Reader after incubation for 10 minute. Luciferase levels were converted into percentages relative to the untreated controls (defined as 100%) and data were fit to the logistic dose response equation y=a/(1+(x/b)^c) using XLFit4 software (IDBS, Emeryville, Calif.). EC50 values were calculated from the resulting equations.
(A replicon is a self-replicating genome or part of one, used to study replication in cells.)
Take `CC[C@@H]1C[C@]1(NC(=O)[C@@H]1C[C@@H](Oc2cc(-c3nc(C(C)C)cs3)nc3c(Cl)c(OCCN4CCOCC4)ccc23)[C@H]2CN(C(=O)OC(C)(C)C)[C@H](C(C)C)C(=O)N21)C(=O)NS(=O)(=O)C1CC1` [Example 11]: the inhibition at 1 µM was greater than 50%. As to `C=C[C@@H]1C[C@]1(NC(=O)[C@@H]1C[C@@H](Oc2cc(-c3nc(C(C)C)cs3)nc3c(Cl)c(OC)ccc23)[C@H]2CN(C(=O)OC(C)(C)C)[C@H](C(C)C)C(=O)N21)C(=O)NS(=O)(=O)C1CC1` [Example 8], the inhibition at 1 µM is greater than 99%. Consider `C=C[C@@H]1C[C@]1(NC(=O)[C@@H]1C[C@@H](Oc2cc(-c3nc(C(C)C)cs3)nc3c(Cl)c(OCCN4CCOCC4)ccc23)[C@H]2CN(C(=O)OC3CCCC3)[C@H](C(C)C)C(=O)N21)C(=O)NS(=O)(=O)C1CC1` [Example 20], for which the inhibition at 1 µM is greater than 90%. For `C=C[C@@H]1C[C@]1(NC(=O)[C@@H]1C[C@@H](Oc2cc(-n3ccc(C(C)C)n3)nc3c(Cl)c(OCCN4CCOCC4)ccc23)[C@H]2CN(C(=O)OC(C)(C)C)[C@H](C(C)C)C(=O)N21)C(=O)NS(=O)(=O)C1CC1` [Example 30] the value was greater than 35%; for `C=C[C@@H]1C[C@]1(NC(=O)[C@@H]1C[C@@H](Oc2cc(-c3nc(C(C)C)cs3)nc3c(Cl)c(OCCN4CCOCC4)ccc23)[C@H]2CN(C(=O)OC(C)(C)C)[C@H](C(C)C)C(=O)N21)C(=O)NS(=O)(=O)C1CC1` [Example 9], greater than 99%.

Turning to `COc1ccc2c(O[C@@H]3C[C@H]4C(=O)N[C@]5(C(=O)NS(=O)(=O)C6CC6)C[C@H]5/C=C\CCCCC[C@@H]5C(=O)N4[C@@H]3CN5C(=O)OC(C)(C)C)cc(-c3cccc(C(C)C)n3)nc2c1Cl` [Example 94], the inhibition at 1 µM is greater than 99%. Take `C=C[C@@H]1C[C@]1(NC(=O)[C@@H]1C[C@@H](Oc2cc(-c3nc(C(C)C)cs3)nc3c(Cl)c(OCCN4CCOCC4)ccc23)[C@H]2CN(C(=O)OC(C)(C)C)[C@H](C(C)(C)OC)C(=O)N21)C(=O)NS(=O)(=O)C1CC1` [Example 34]: the inhibition at 1 µM was greater than 95%. With `C=C[C@@H]1C[C@]1(NC(=O)[C@@H]1C[C@@H](Oc2cc(-c3nc(C(C)C)cs3)nc3c(Cl)c(OCCN4CCOCC4)ccc23)[C@H]2CN(C(=O)OC(C)(C)C)C(=C(C)C)C(=O)N21)C(=O)NS(=O)(=O)C1CC1` [Example 35] the figure was greater than 35%. For `CC[C@@H]1C[C@]1(NC(=O)[C@@H]1C[C@@H](Oc2cc(-c3nc(C(C)C)cs3)nc3c(C)c(OC)ccc23)[C@H]2CN(C)[C@H](C(C)C)C(=O)N21)C(=O)NS(=O)(=O)C1CC1` [Example 63] the value was greater than 40%. For `C=C[C@@H]1C[C@]1(NC(=O)[C@@H]1C[C@@H](Oc2cc(-c3cccc(C(C)C)n3)nc3c(Cl)c(OC)ccc23)[C@H]2CN(C(=O)OC(C)(C)C)[C@H](C(C)C)C(=O)N21)C(=O)NS(=O)(=O)C1CC1` [Example 21] the value was greater than 99%. As to `C=C[C@@H]1C[C@]1(NC(=O)[C@@H]1C[C@@H](Oc2cc(-n3ccc(C(C)C)n3)nc3c(Cl)c(OCCN4CCOCC4)ccc23)[C@H]2CN(C(=O)OC(C)(C)C)[C@H](C(C)(C)C)C(=O)N21)C(=O)NS(=O)(=O)C1CC1` [Example 28], the inhibition at 1 µM is greater than 99%.

Take `C=C[C@@H]1C[C@]1(NC(=O)[C@@H]1C[C@@H](Oc2cc(-c3cccc(C(C)C)n3)nc3c(Cl)c(OC)ccc23)[C@H]2CN(C(=O)OC(C)(C)C)[C@H](C(C)(C)C)C(=O)N21)C(=O)NS(=O)(=O)C1CC1` [Example 44]: the inhibition at 1 µM was greater than 99%.

With `CC[C@@H]1C[C@]1(NC(=O)[C@@H]1C[C@@H](Oc2cc(-c3nc(C(C)C)cs3)nc3c(Cl)c(OCCN4CCOCC4)ccc23)[C@H]2CN(C(=O)OC(C)(C)C)[C@H]([C@@H](C)CC)C(=O)N21)C(=O)NS(=O)(=O)C1CC1` [Example 42], the inhibition at 1 µM was greater than 95%. For the molecule `C=C[C@@H]1C[C@]1(NC(=O)[C@@H]1C[C@@H](Oc2cc(-c3nc(C(C)C)cs3)nc3c(C)c(OC)ccc23)[C@H]2CN(C(=O)OC(C)(C)C)[C@H](C(C)C)C(=O)N21)C(=O)NS(=O)(=O)C1CC1` [Example 58], the inhibition at 1 µM was greater than 85%. Take `C=C[C@@H]1C[C@]1(NC(=O)[C@@H]1C[C@@H](Oc2cc(-c3nc(C(C)C)cs3)nc3c(C)c(OC)ccc23)[C@H]2CN(C(=O)OC(C)(C)C)C([C@H](C)CC)C(=O)N21)C(=O)NS(=O)(=O)C1CC1` (stereo partly shown) [Example 38]: the inhibition at 1 µM was greater than 95%.

Regarding `C=C[C@@H]1C[C@]1(NC(=O)[C@@H]1C[C@@H](Oc2cc(-c3nc(C(C)C)cs3)nc3c(Cl)c(OCCN4CCOCC4)ccc23)[C@H]2CN(C(=O)OC(C)(C)C)[C@H]([C@@H](C)CC)C(=O)N21)C(=O)NS(=O)(=O)C1CC1` [Example 40], the inhibition at 1 µM was greater than 75%. As to `C=C[C@@H]1C[C@]1(NC(=O)[C@@H]1C[C@@H](Oc2cc(-c3nc(C(C)C)cs3)nc3c(C)c(OC)ccc23)[C@H]2CN(C(=O)OC(C)(C)C)[C@H](C(C)(C)C)C(=O)N21)C(=O)NS(=O)(=O)C1CC1` [Example 24], the inhibition at 1 µM is greater than 99%. Take `C=C[C@@H]1C[C@]1(NC(=O)[C@@H]1C[C@@H](Oc2cc(-c3nc(C(C)C)cs3)nc3c(Cl)c(OCCOC)ccc23)[C@H]2CN(C(=O)OC(C)(C)C)[C@H](C(C)(C)C)C(=O)N21)C(=O)NS(=O)(=O)C1CC1` [Example 22]: the inhibition at 1 µM was greater than 99%. For `CC[C@@H]1C[C@]1(NC(=O)[C@@H]1C[C@@H](Oc2cc(-c3nc(C(C)C)cs3)nc3c(Cl)c(OCC(OC)OC)ccc23)[C@H]2CN(C(=O)OC(C)(C)C)[C@H](C(C)C)C(=O)N21)C(=O)NS(=O)(=O)C1CC1` [Example 13] the value was greater than 99%; for `C=C[C@@H]1C[C@]1(NC(=O)[C@@H]1C[C@@H](Oc2cc(-c3nc(C(C)C)cs3)nc3c(Cl)c(OCCN4CCOCC4)ccc23)[C@H]2CN(C(=O)OC(C)(C)C)[C@H](C3CCOCC3)C(=O)N21)C(=O)NS(=O)(=O)C1CC1` [Example 73], greater than 90%. For `C=C[C@@H]1C[C@]1(NC(=O)[C@@H]1C[C@@H](Oc2cc(-c3nc(C(C)C)cs3)nc3c(Cl)c(OCCN4CCOCC4)ccc23)[C@H]2CN(S(C)(=O)=O)[C@H](C(C)C)C(=O)N21)C(=O)NS(=O)(=O)C1CC1` [Example 16] the value was greater than 25%. For `C=C[C@@H]1C[C@]1(NC(=O)[C@@H]1C[C@@H](Oc2cc(-c3nc(C(C)C)cs3)nc3c(Cl)c(OCCN4CCOCC4)ccc23)[C@H]2CN(C(=O)OC(C)(C)C)[C@H](C(C)(C)C)C(=O)N21)C(=O)NS(=O)(=O)C1CC1` [Example 26] the value was greater than 99%. `C=C[C@@H]1C[C@]1(NC(=O)[C@@H]1C[C@@H](Oc2cc(-c3csc(C(C)C)n3)nc3c(Cl)c(OC)ccc23)[C@H]2CN(C(=O)OC(C)(C)C)[C@H](C(C)(C)C)C(=O)N21)C(=O)NS(=O)(=O)C1(C)CC1` [Example 4]: the inhibition at 1 µM was greater than 99%. With `C=C[C@@H]1C[C@]1(NC(=O)[C@@H]1C[C@@H](Oc2cc(-c3nc(C(C)C)cs3)nc3c(Cl)c(OCCN4CCOCC4)ccc23)[C@H]2CN(C(=O)OC(C)(C)C)[C@H]([C@H](C)CC)C(=O)N21)C(=O)NS(=O)(=O)C1CC1` [Example 49] the figure was greater than 95%. Take `CC[C@@H]1C[C@]1(NC(=O)[C@@H]1C[C@@H](Oc2cc(-c3nc(C(C)C)cs3)nc3c(C)c(OC)ccc23)[C@H]2CN(C(=O)OC(C)(C)C)[C@H](C(C)C)C(=O)N21)C(=O)NS(=O)(=O)C1CC1` [Example 59]: the inhibition at 1 µM is greater than 45%.
